These results are taken from PMC7226357, “Aspirin: A Suicide Inhibitor of Carbonic Anhydrase II” (Biomolecules, 2020).

This test has as its target T1, Carbonic anhydrase II (Homo sapiens, UniProt P00918).
T1 construct: gene CA2
Nature of the test: colorimetric esterase assay at […] nm (substrate of the assay). The class given is biochemical.

Consider `CC(=O)Oc1ccc([N+](=O)[O-])cc1` [pNPA, 4-nitrophenyl acetate], for which the “colorimetric esterase assay at 348 nm (substrate of the assay)” value is “CAII cleaves the ester bond of 4-nitrophenyl acetate, generating 4-nitrophenol”.
